Test system: adult Japanese patients with SBS-IF
Experiment: Safety: treatment-emergent adverse events (TEAEs, TESAEs)
Format: in vivo
Details: ≤ 24 weeks (SHP633-306 and TED-C14-004); 0.05 mg/kg/day
Excerpt: Safety analyses included the monitoring of adverse events (AEs), body weight, BMI, vital signs, 12-lead electrocardiogram (ECG), serum biochemistry, hematology, and presence of antibodies to teduglutide. AEs were coded using the Medical Dictionary for Regulatory Activities versions 17.1 (TED-C14-004) and 21.0 (SHP633-306 and SHP633-307). Specifically, AEs were treatment-emergent AEs (TEAEs), defined as any unfavorable and unintended sign (including any abnormal laboratory finding), symptom, or disease that occurred during treatment with teduglutide, whether or not the event was considered to be related to the study drug by the clinical study investigator. AEs were also categorized as mild, moderate, or severe. […] AEs were considered related to treatment with teduglutide, or its administration, based on the investigator's medical judgment.

SMILES: CC[C@H](C)[C@H](NC(=O)[C@H](Cc1ccccc1)NC(=O)[C@H](CC(=O)O)NC(=O)[C@H](CCCNC(=N)N)NC(=O)[C@H](C)NC(=O)[C@H](C)NC(=O)[C@H](CC(C)C)NC(=O)[C@H](CC(N)=O)NC(=O)[C@H](CC(=O)O)NC(=O)[C@H](CC(C)C)NC(=O)[C@@H](NC(=O)[C@@H](NC(=O)[C@H](CC(N)=O)NC(=O)[C@H](CCSC)NC(=O)[C@H](CCC(=O)O)NC(=O)[C@H](CC(=O)O)NC(=O)[C@H](CO)NC(=O)[C@H](Cc1ccccc1)NC(=O)[C@H](CO)NC(=O)CNC(=O)[C@H](CC(=O)O)NC(=O)CNC(=O)[C@@H](N)Cc1c[nH]cn1)[C@@H](C)O)[C@@H](C)CC)C(=O)N[C@@H](CC(N)=O)C(=O)N[C@@H](Cc1c[nH]c2ccccc12)C(=O)N[C@@H](CC(C)C)C(=O)N[C@H](C(=O)N[C@@H](CCC(N)=O)C(=O)N[C@H](C(=O)N[C@@H](CCCCN)C(=O)N[C@H](C(=O)N[C@H](C(=O)N[C@@H](CC(=O)O)C(=O)O)[C@@H](C)O)[C@@H](C)CC)[C@@H](C)O)[C@@H](C)CC [teduglutide]
- Device-related infection (central venous catheter for PS): Events: 9 n
- Device-related infection (central venous catheter for PS): Patients: 6 (33.3) n (%)
- Diarrhea: Events: 1 n
- Diarrhea: Patients: 1 (5.6) n (%)
- Dry skin: Events: 1 n
- Dry skin: Patients: 1 (5.6) n (%)
- Enteritis: Events: 1 n
- Enteritis: Patients: 1 (5.6) n (%)
- Enterocolitis: Events: 2 n
- Enterocolitis: Patients: 1 (5.6) n (%)
- Eye disorder: Events: 2 n
- Eye disorder: Patients: 2 (11.1) n (%)
- Gastrointestinal disorders: Events: 27 n
- Gastrointestinal disorders: Patients: 12 (66.7) n (%)
- General disorders and administration site conditions: Events: 21 n
- General disorders and administration site conditions: Patients: 9 (50.0) n (%)
- Headache: Events: 3 n
- Headache: Patients: 3 (16.7) n (%)
- Hematuria: Events: 1 n
- Hematuria: Patients: 1 (5.6) n (%)
- Hemorrhage subcutaneous: Events: 1 n
- Hemorrhage subcutaneous: Patients: 1 (5.6) n (%)
- Hepatobiliary disorders: Events: 3 n
- Hepatobiliary disorders: Patients: 2 (11.1) n (%)
- Hypersensitivity: Events: 0 n
- Hypersensitivity: Patients: 0 n (%)
- Hypozincemia: Events: 1 n
- Hypozincemia: Patients: 1 (5.6) n (%)
- Immune system disorders: Events: 0 n
- Immune system disorders: Patients: 0 n (%)
- Infections and infestations: Events: 19 n
- Infections and infestations: Patients: 8 (44.4) n (%)
- Influenza: Events: 0 n
- Influenza: Patients: 0 n (%)
- Injection site reaction: Events: 4 n
- Injection site reaction: Patients: 4 (22.2) n (%)
- Injury, poisoning, and procedural complications: Events: 5 n
- Injury, poisoning, and procedural complications: Patients: 4 (22.2) n (%)
- Insomnia: Events: 0 n
- Insomnia: Patients: 0 n (%)
- Investigations: Events: 9 n
- Investigations: Patients: 6 (33.3) n (%)
- Metabolism and nutrition disorders: Events: 6 n
- Metabolism and nutrition disorders: Patients: 4 (22.2) n (%)
- Musculoskeletal and connective tissue disorders: Events: 2 n
- Musculoskeletal and connective tissue disorders: Patients: 2 (11.1) n (%)
- Nasopharyngitis: Events: 3 n
- Nasopharyngitis: Patients: 3 (16.7) n (%)
- Nausea: Events: 1 n
- Nausea: Patients: 1 (5.6) n (%)
- Nervous system disorders: Events: 7 n
- Nervous system disorders: Patients: 4 (22.2) n (%)
- Oral herpes: Events: 1 n
- Oral herpes: Patients: 1 (5.6) n (%)
- Oropharyngeal pain: Events: 1 n
- Oropharyngeal pain: Patients: 1 (5.6) n (%)
- Pruritus: Events: 1 n
- Pruritus: Patients: 1 (5.6) n (%)
- Psychiatric disorders: Events: 0 n
- Psychiatric disorders: Patients: 0 n (%)
- Pyrexia: Events: 6 n
- Pyrexia: Patients: 6 (33.3) n (%)
- Renal and urinary disorders: Events: 2 n
- Renal and urinary disorders: Patients: 2 (11.1) n (%)
- Respiratory, thoracic, and mediastinal disorders: Events: 5 n
- Respiratory, thoracic, and mediastinal disorders: Patients: 5 (27.8) n (%)
- Skin and subcutaneous tissue disorders: Events: 5 n
- Skin and subcutaneous tissue disorders: Patients: 4 (22.2) n (%)
- Somnolence: Events: 0 n
- Somnolence: Patients: 0 n (%)
- Stomatitis: Events: 1 n
- Stomatitis: Patients: 1 (5.6) n (%)
- Upper respiratory tract inflammation: Events: 2 n
- Upper respiratory tract inflammation: Patients: 2 (11.1) n (%)
- Vascular disorders: Events: 2 n
- Vascular disorders: Patients: 2 (11.1) n (%)
- Vascular pain: Events: 0 n
- Vascular pain: Patients: 0 n (%)
- Vomiting: Events: 2 n
- Vomiting: Patients: 2 (11.1) n (%)
